Experimental data reported in the supplement of paper PMC10627819.

Experiments:
S. aureus DSM 20231 [1] = assay: fitness (endpoint OD595 vs no drug) (fraction); higher = more growth
How it was run: (§1)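 Each well of a 384-well plate received 30 µl of culture at OD595 0.01, or 55 µl for S. pneumoniae. TSB, LB Lennox or CY served as media at 37 °C. OD595 was taken every 30 min for 14 h and corrected by subtracting the first reading. Fitness is the optical density at stationary-phase entry divided by the robust mean of no-drug controls, capped at 1.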

S. aureus Newman = assay: as above
How it was run: as §1

S. pneumoniae D39V = assay: as above
How it was run: as §1

S. aureus DSM 20231 [2] = assay: Bliss interaction score (quartile over a dose matrix) (fitness difference); higher = more antagonism (negative = synergy)
How it was run: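 Quartiles of the Bliss score were taken over technical, biological and donor/recipient replicates. That score is observed fitness minus the product of the single-drug fitness values, which were inferred from combination data. Fitness itself is OD595 at entry into stationary phase divided by the plate's robust no-drug mean, with a cap at 1.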
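For Bliss interaction score (quartile over a dose matrix) in this document: first quartile when negative (synergy) and third quartile when positive (antagonism).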

CO[C@@]12[C@H](COC(N)=O)C3=C(C(=O)C(C)=C(N)C3=O)N1C[C@@H]1N[C@@H]12 [Mitomycin C] + Cc1ncc([N+](=O)[O-])n1CCO [Metronidazole]
Conditions | fitness
S. aureus DSM 20231 [1], first compound 0.0156 µg/mL, partner 0.625 µg/mL | 0.775
S. aureus DSM 20231 [1], first compound 0.0156 µg/mL, partner 1.25 µg/mL | 0.873
S. aureus DSM 20231 [1], first compound 0.0156 µg/mL, partner 2.5 µg/mL | 0.799
S. aureus DSM 20231 [1], first compound 0.0312 µg/mL, partner 0.625 µg/mL | 0.756
S. aureus DSM 20231 [1], first compound 0.0312 µg/mL, partner 1.25 µg/mL | 0.782
S. aureus DSM 20231 [1], first compound 0.0312 µg/mL, partner 2.5 µg/mL | 0.779
S. aureus DSM 20231 [1], first compound 0.0625 µg/mL, partner 0.625 µg/mL | 0.593
S. aureus DSM 20231 [1], first compound 0.0625 µg/mL, partner 1.25 µg/mL | 0.606
S. aureus DSM 20231 [1], first compound 0.0625 µg/mL, partner 2.5 µg/mL | 0.643
S. aureus Newman, first compound 0.0156 µg/mL, partner 0.625 µg/mL | 0.75
S. aureus Newman, first compound 0.0156 µg/mL, partner 1.25 µg/mL | 0.766
S. aureus Newman, first compound 0.0156 µg/mL, partner 2.5 µg/mL | 0.709
S. aureus Newman, first compound 0.0312 µg/mL, partner 0.625 µg/mL | 0.649
S. aureus Newman, first compound 0.0312 µg/mL, partner 1.25 µg/mL | 0.698
S. aureus Newman, first compound 0.0312 µg/mL, partner 2.5 µg/mL | 0.569
S. aureus Newman, first compound 0.0625 µg/mL, partner 0.625 µg/mL | 0.524
S. aureus Newman, first compound 0.0625 µg/mL, partner 1.25 µg/mL | 0.517
S. aureus Newman, first compound 0.0625 µg/mL, partner 2.5 µg/mL | 0.369
S. pneumoniae D39V, first compound 0.001075 µg/mL, partner 1.25 µg/mL | 0.972
S. pneumoniae D39V, first compound 0.001075 µg/mL, partner 2.5 µg/mL | 0.974
S. pneumoniae D39V, first compound 0.001075 µg/mL, partner 5 µg/mL | 0.93
S. pneumoniae D39V, first compound 0.002 µg/mL, partner 1.073 µg/mL | 0.853
S. pneumoniae D39V, first compound 0.002 µg/mL, partner 2.145 µg/mL | 0.812
S. pneumoniae D39V, first compound 0.002 µg/mL, partner 4.29 µg/mL | 0.791
S. pneumoniae D39V, first compound 0.00215 µg/mL, partner 1.25 µg/mL | 0.971
S. pneumoniae D39V, first compound 0.00215 µg/mL, partner 2.5 µg/mL | 0.984
S. pneumoniae D39V, first compound 0.00215 µg/mL, partner 5 µg/mL | 0.933
S. pneumoniae D39V, first compound 0.004 µg/mL, partner 1.073 µg/mL | 0.802
S. pneumoniae D39V, first compound 0.004 µg/mL, partner 2.145 µg/mL | 0.806
S. pneumoniae D39V, first compound 0.004 µg/mL, partner 4.29 µg/mL | 0.742
S. pneumoniae D39V, first compound 0.0043 µg/mL, partner 1.25 µg/mL | 0.857
S. pneumoniae D39V, first compound 0.0043 µg/mL, partner 2.5 µg/mL | 0.852
S. pneumoniae D39V, first compound 0.0043 µg/mL, partner 5 µg/mL | 0.836
S. pneumoniae D39V, first compound 0.008 µg/mL, partner 1.073 µg/mL | 0.72
S. pneumoniae D39V, first compound 0.008 µg/mL, partner 4.29 µg/mL | 0.735

fitness, S. aureus Newman, one replicate
Conditions | first compound 0.0156 µg/mL | first compound 0.0312 µg/mL | first compound 0.0625 µg/mL
partner 0.781 µg/mL | 0.737 | 0.703 | 0.581
partner 1.562 µg/mL | 0.731 | 0.689 | 0.625
partner 3.124 µg/mL | 0.704 | 0.747 | 0.584

CO[C@@]12[C@H](COC(N)=O)C3=C(C(=O)C(C)=C(N)C3=O)N1C[C@@H]1N[C@@H]12 [Mitomycin C] + Cc1onc(-c2ccccc2)c1C(=O)N[C@@H]1C(=O)N2[C@@H]1SC(C)(C)[C@@H]2C(=O)O [Oxacillin]
Conditions | fitness
S. aureus DSM 20231 [1], first compound 0.0156 µg/mL, partner 0.0156 µg/mL | 0.586
S. aureus DSM 20231 [1], first compound 0.0156 µg/mL, partner 0.0312 µg/mL | 0.458
S. aureus DSM 20231 [1], first compound 0.0156 µg/mL, partner 0.0625 µg/mL | 0.389
S. aureus DSM 20231 [1], first compound 0.0312 µg/mL, partner 0.0156 µg/mL | 0.581
S. aureus DSM 20231 [1], first compound 0.0312 µg/mL, partner 0.0312 µg/mL | 0.499
S. aureus DSM 20231 [1], first compound 0.0312 µg/mL, partner 0.0625 µg/mL | 0.432
S. aureus DSM 20231 [1], first compound 0.0625 µg/mL, partner 0.0156 µg/mL | 0.544
S. aureus DSM 20231 [1], first compound 0.0625 µg/mL, partner 0.0312 µg/mL | 0.474
S. aureus DSM 20231 [1], first compound 0.0625 µg/mL, partner 0.0625 µg/mL | 0.348
S. aureus Newman, first compound 0.0156 µg/mL, partner 0.0156 µg/mL | 0.672
S. aureus Newman, first compound 0.0156 µg/mL, partner 0.0312 µg/mL | 0.616
S. aureus Newman, first compound 0.0156 µg/mL, partner 0.0625 µg/mL | 0.485
S. aureus Newman, first compound 0.0312 µg/mL, partner 0.0156 µg/mL | 0.571
S. aureus Newman, first compound 0.0312 µg/mL, partner 0.0312 µg/mL | 0.534
S. aureus Newman, first compound 0.0312 µg/mL, partner 0.0625 µg/mL | 0.423
S. aureus Newman, first compound 0.0625 µg/mL, partner 0.0156 µg/mL | 0.421
S. aureus Newman, first compound 0.0625 µg/mL, partner 0.0312 µg/mL | 0.307
S. aureus Newman, first compound 0.0625 µg/mL, partner 0.0625 µg/mL | 0.111
S. pneumoniae D39V, first compound 0.001075 µg/mL, partner 0.01 µg/mL | 0.973
S. pneumoniae D39V, first compound 0.001075 µg/mL, partner 0.02 µg/mL | 0.957
S. pneumoniae D39V, first compound 0.002 µg/mL, partner 0.01 µg/mL | 0.838
S. pneumoniae D39V, first compound 0.002 µg/mL, partner 0.02 µg/mL | 0.764
S. pneumoniae D39V, first compound 0.002 µg/mL, partner 0.04 µg/mL | 0.219
S. pneumoniae D39V, first compound 0.00215 µg/mL, partner 0.01 µg/mL | 0.974
S. pneumoniae D39V, first compound 0.00215 µg/mL, partner 0.02 µg/mL | 0.968
S. pneumoniae D39V, first compound 0.00215 µg/mL, partner 0.04 µg/mL | 0.605
S. pneumoniae D39V, first compound 0.004 µg/mL, partner 0.01 µg/mL | 0.813
S. pneumoniae D39V, first compound 0.004 µg/mL, partner 0.02 µg/mL | 0.735
S. pneumoniae D39V, first compound 0.004 µg/mL, partner 0.04 µg/mL | 0.227
S. pneumoniae D39V, first compound 0.0043 µg/mL, partner 0.01 µg/mL | 0.891
S. pneumoniae D39V, first compound 0.0043 µg/mL, partner 0.02 µg/mL | 0.822
S. pneumoniae D39V, first compound 0.008 µg/mL, partner 0.01 µg/mL | 0.664
S. pneumoniae D39V, first compound 0.008 µg/mL, partner 0.02 µg/mL | 0.636
S. pneumoniae D39V, first compound 0.008 µg/mL, partner 0.04 µg/mL | 0.241

CO[C@@]12[C@H](COC(N)=O)C3=C(C(=O)C(C)=C(N)C3=O)N1C[C@@H]1N[C@@H]12 [Mitomycin C] + Cn1nnc(-c2ccc(-c3ccc(N4C[C@H](CO)OC4=O)cc3F)cn2)n1 [Tedizolid]
fitness
Conditions | partner 0.03125 µg/mL | partner 0.0625 µg/mL | partner 0.125 µg/mL | partner 0.25 µg/mL | partner 0.5 µg/mL
S. aureus DSM 20231 [1], first compound 0.0156 µg/mL | – | 0.701 | 0.652 | 0.281 | –
S. aureus DSM 20231 [1], first compound 0.0312 µg/mL | – | 0.692 | 0.597 | 0.225 | –
S. aureus DSM 20231 [1], first compound 0.0625 µg/mL | – | 0.511 | 0.47 | 0.2 | –
S. aureus Newman, first compound 0.0156 µg/mL | – | 0.653 | 0.612 | 0.177 | –
S. aureus Newman, first compound 0.0312 µg/mL | – | 0.61 | 0.587 | 0.084 | –
S. aureus Newman, first compound 0.0625 µg/mL | – | 0.519 | 0.379 | 0.0559 | –
S. pneumoniae D39V, first compound 0.001075 µg/mL | – | – | 0.76 | 0.688 | 0.313
S. pneumoniae D39V, first compound 0.002 µg/mL | 0.825 | 0.821 | 0.749 | – | –
S. pneumoniae D39V, first compound 0.00215 µg/mL | – | – | 0.774 | 0.687 | 0.273
S. pneumoniae D39V, first compound 0.004 µg/mL | 0.745 | 0.725 | 0.686 | – | –
S. pneumoniae D39V, first compound 0.0043 µg/mL | – | – | 0.687 | 0.617 | 0.21
S. pneumoniae D39V, first compound 0.008 µg/mL | 0.635 | 0.611 | 0.518 | – | –

CO[C@@]12[C@H](COC(N)=O)C3=C(C(=O)C(C)=C(N)C3=O)N1C[C@@H]1N[C@@H]12 [MitomycinC] + CCCSc1nc(N[C@@H]2C[C@H]2c2ccc(F)c(F)c2)c2nnn([C@@H]3C[C@H](OCCO)[C@@H](O)[C@H]3O)c2n1 [Ticagrelor]
Conditions | Bliss interaction score
S. aureus DSM 20231 [2] | -0.392

CO[C@@]12[C@H](COC(N)=O)C3=C(C(=O)C(C)=C(N)C3=O)N1C[C@@H]1N[C@@H]12 [MitomycinC] + CCCc1nc2c(C)cc(-c3nc4ccccc4n3C)cc2n1Cc1ccc(-c2ccccc2C(=O)O)cc1 [Telmisartan]
Conditions | Bliss interaction score
S. aureus DSM 20231 [2] | -0.162

CO[C@@]12[C@H](COC(N)=O)C3=C(C(=O)C(C)=C(N)C3=O)N1C[C@@H]1N[C@@H]12 [MitomycinC] + COc1ccc2[nH]c([S+]([O-])Cc3ncc(C)c(OC)c3C)nc2c1 [Omeprazole]
Conditions | Bliss interaction score
S. aureus DSM 20231 [2] | 0.169
